# Results from PubChem BioAssay AID330 (DTP/NCI, 2004).
# Several values for one entry are separate records, joined by “and”; a condition that tells them apart may be missing. Identical values can stand only once. Inconclusive results and toxic doses are left out.
# Tested on: P388 leukemia ip, CD2F1 mice, survival T/C
# Assay: NCI In Vivo Anticancer Drug Screen. Data for tumor model P388 Leukemia (intraperitoneal) in CD2F1 (CDF1) mice
# Settings: endpoint: median survival time, higher = longer survival
# In short: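 Mice carrying the transplanted tumor received test compound or vehicle. Survival was recorded in each group, and the value is the treated-group measurement divided by that of the vehicle-treated control group.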
# [1] = dose: 12.5 mg/kg/injection, schedule: Q01DX009 (ip), vehicle: saline
# [2] = dose: 25.0 mg/kg/injection, schedule: Q01DX009 (ip), vehicle: saline
# [3] = dose: 50.0 mg/kg/injection, schedule: Q01DX009 (ip), vehicle: saline
# [4] = dose: 50.0 mg/kg/injection, schedule: Q01DX005 (ip), vehicle: Klucel (hydroxypropylcellulose) (HPC)
# [5] = dose: 60.0 mg/kg/injection, schedule: Q01DX005 (ip), vehicle: saline with Tween-80
# [6] = dose: 120.0 mg/kg/injection, schedule: Q01DX005 (ip), vehicle: saline with Tween-80
# [7] = dose: 240.0 mg/kg/injection, schedule: Q01DX005 (ip), vehicle: saline with Tween-80
# [8] = dose: 100.0 mg/kg/injection, schedule: Q04DX002 (ip), vehicle: saline
# [9] = dose: 200.0 mg/kg/injection, schedule: Q04DX002 (ip), vehicle: saline
# [10] = dose: 400.0 mg/kg/injection, schedule: Q04DX002 (ip), vehicle: saline
# [11] = dose: 50.0 mg/kg/injection, schedule: Q01DX005 (ip), vehicle: saline with Tween-80
# [12] = dose: 100.0 mg/kg/injection, schedule: Q01DX005 (ip), vehicle: saline with Tween-80
# [13] = dose: 200.0 mg/kg/injection, schedule: Q01DX005 (ip), vehicle: saline with Tween-80
# [14] = dose: 6.25 mg/kg/injection, schedule: Q01DX005 (ip), vehicle: Klucel (hydroxypropylcellulose) (HPC)
# [15] = dose: 12.5 mg/kg/injection, schedule: Q01DX005 (ip), vehicle: Klucel (hydroxypropylcellulose) (HPC)
# [16] = dose: 50.0 mg/kg/injection, schedule: Q01DX009 (ip), vehicle: Klucel (hydroxypropylcellulose) (HPC)
# [17] = dose: 100.0 mg/kg/injection, schedule: Q01DX009 (ip), vehicle: Klucel (hydroxypropylcellulose) (HPC)
# [18] = dose: 200.0 mg/kg/injection, schedule: Q01DX009 (ip), vehicle: Klucel (hydroxypropylcellulose) (HPC)
# [19] = dose: 50.0 mg/kg/injection, schedule: Q01DX009 (ip), vehicle: saline with Tween-80
# [20] = dose: 100.0 mg/kg/injection, schedule: Q01DX009 (ip), vehicle: saline with Tween-80
# [21] = dose: 100.0 mg/kg/injection, schedule: Q04DX002 (ip), vehicle: saline with Tween-80
# [22] = dose: 50.0 mg/kg/injection, schedule: Q04DX003 (ip), vehicle: saline with Tween-80
# [23] = dose: 100.0 mg/kg/injection, schedule: Q04DX003 (ip), vehicle: saline with Tween-80
compound,measurement,setting,value
Nc1n[nH]c(CO)n1,T/C,"dose: 6.25 mg/kg/injection, schedule: Q01DX009 (ip), vehicle: saline",95 % of control
same,T/C,[1],91 % of control
same,T/C,[2],104 % of control
same,T/C,[3],99 % of control
Cc1nc(Nc2ccc(F)cc2)c2c(C)c(CC(C)C)[nH]c2n1,T/C,[4],87 % of control
same,T/C,"dose: 100.0 mg/kg/injection, schedule: Q01DX005 (ip), vehicle: Klucel (hydroxypropylcellulose) (HPC)",91 % of control
same,T/C,"dose: 200.0 mg/kg/injection, schedule: Q01DX005 (ip), vehicle: Klucel (hydroxypropylcellulose) (HPC)",100 % of control
COc1cc(C(c2cc3c(cc2O)OCO3)N2CCN(C(c3cc(OC)c(OC)c(OC)c3)c3cc4c(cc3O)OCO4)CC2)cc(OC)c1OC (stereo unspecified),T/C,[5],87 % of control
same,T/C,[6],90 % of control
same,T/C,[7],87 % of control
CNC(=S)NNC(=O)C(Cc1ccc([N+](=O)[O-])cc1)C(=O)NNC(=S)NC,T/C,[8],98 % of control
same,T/C,[9],98 % of control
same,T/C,[10],90 % of control
O=C1N(CCO)C2=CCCCC23c2[nH]c4ccccc4c2CCN13 (stereo unspecified),T/C,[11],104 % of control
same,T/C,[12],102 % of control
same,T/C,[13],102 % of control
C[C@H]1CCC2=C(C1)NC(N)=NC2(C)C,T/C,"dose: 12.5 mg/kg/injection, schedule: Q04DX002 (ip), vehicle: saline with Tween-80",93 % of control
same,T/C,"dose: 25.0 mg/kg/injection, schedule: Q04DX002 (ip), vehicle: saline with Tween-80",93 % of control
same,T/C,"dose: 50.0 mg/kg/injection, schedule: Q04DX002 (ip), vehicle: saline with Tween-80",98 % of control
CCCCCCCCC[N+]1([O-])CCCCCC1,T/C,[1],100 % of control
same,T/C,[2],99 % of control
same,T/C,[3],105 % of control and 107 % of control
CC1(C)CC(=O)C(CSc2ccccc2)C(=O)C1,T/C,"dose: 12.5 mg/kg/injection, schedule: Q01DX001 (ip), vehicle: saline",108 % of control
same,T/C,"dose: 25.0 mg/kg/injection, schedule: Q01DX001 (ip), vehicle: Klucel (hydroxypropylcellulose) (HPC)",100 % of control
same,T/C,"dose: 25.0 mg/kg/injection, schedule: Q01DX001 (ip), vehicle: saline",111 % of control
same,T/C,"dose: 50.0 mg/kg/injection, schedule: Q01DX001 (ip), vehicle: Klucel (hydroxypropylcellulose) (HPC)",100 % of control and 105 % of control
same,T/C,"dose: 50.0 mg/kg/injection, schedule: Q01DX001 (ip), vehicle: saline",112 % of control
same,T/C,"dose: 100.0 mg/kg/injection, schedule: Q01DX001 (ip), vehicle: Klucel (hydroxypropylcellulose) (HPC)",100 % of control
N#Cc1ccc[n+](CC(=O)c2ccc3ccccc3c2)c1,T/C,[14],103 % of control
same,T/C,[15],103 % of control
same,T/C,"dose: 25.0 mg/kg/injection, schedule: Q01DX005 (ip), vehicle: Klucel (hydroxypropylcellulose) (HPC)",100 % of control
COC1(C)O[C@@]2(C)c3ccccc3C(=O)[C@@]2(c2ccccc2)O1 (stereo partly specified),T/C,[5],104 % of control
same,T/C,[6],97 % of control
same,T/C,[7],97 % of control
O=C(CCCCC(=O)NO)NO,T/C,[16],102 % of control
same,T/C,[17],105 % of control
same,T/C,[18],105 % of control
c1cc(-c2nc3ccc(-c4nc5ccc(C6=NCCN6)cc5[nH]4)cc3[nH]2)ccc1C1=NCCN1,T/C,[14],100 % of control
same,T/C,[15],98 % of control
same,T/C,[4],88 % of control
O=C1CCC(N2C(=O)c3ccccc3C2=O)C(=O)N1 (stereo unspecified),T/C,[19],100 % of control
same,T/C,[20],92 % of control
COC(=O)C1CC(OC(C)=O)C(=O)[C@H]2C1(C)CC[C@H]1C(=O)O[C@H](c3ccoc3)CC12C (stereo partly specified),T/C,"dose: 19.0 mg/kg/injection, schedule: Q01DX005 (ip), vehicle: Klucel (hydroxypropylcellulose) (HPC)",94 % of control
same,T/C,"dose: 38.0 mg/kg/injection, schedule: Q01DX005 (ip), vehicle: Klucel (hydroxypropylcellulose) (HPC)",87 % of control
same,T/C,"dose: 76.0 mg/kg/injection, schedule: Q01DX005 (ip), vehicle: Klucel (hydroxypropylcellulose) (HPC)",90 % of control
O=C1NN2CCCN=C2c2cccnc21,T/C,[21],101 % of control
same,T/C,"dose: 200.0 mg/kg/injection, schedule: Q04DX002 (ip), vehicle: saline with Tween-80",98 % of control
same,T/C,"dose: 400.0 mg/kg/injection, schedule: Q04DX002 (ip), vehicle: saline with Tween-80",101 % of control
Cc1cc(=O)n(-c2cc(C)c3cc(Cl)ccc3n2)[nH]1,T/C,"dose: 100.0 mg/kg/injection, schedule: Q01DX001 (ip), vehicle: saline with Tween-80",93 % of control
same,T/C,"dose: 200.0 mg/kg/injection, schedule: Q01DX001 (ip), vehicle: saline with Tween-80",94 % of control
same,T/C,"dose: 400.0 mg/kg/injection, schedule: Q01DX001 (ip), vehicle: saline with Tween-80",104 % of control
CN(C=O)c1cc2c3c(c1)CCCN3CCC2,T/C,"dose: 12.5 mg/kg/injection, schedule: Q01DX009 (ip), vehicle: saline with Tween-80",109 % of control
same,T/C,"dose: 12.5 mg/kg/injection, schedule: Q04DX003 (ip), vehicle: saline with Tween-80",100 % of control
same,T/C,"dose: 25.0 mg/kg/injection, schedule: Q01DX009 (ip), vehicle: saline with Tween-80",104 % of control
same,T/C,"dose: 25.0 mg/kg/injection, schedule: Q04DX003 (ip), vehicle: saline with Tween-80",90 % of control
same,T/C,[19],109 % of control
same,T/C,[22],95 % of control
CCCc1c(C(=O)OCC)c(-c2ccccc2)c(CCC)c2c1-c1cccc3cccc-2c13,T/C,[19],99 % of control
same,T/C,[20],95 % of control
same,T/C,"dose: 200.0 mg/kg/injection, schedule: Q01DX009 (ip), vehicle: saline with Tween-80",92 % of control
C[N+](C)(C)N,T/C,[2],102 % of control
same,T/C,[3],100 % of control
same,T/C,"dose: 100.0 mg/kg/injection, schedule: Q01DX009 (ip), vehicle: saline",100 % of control
O=c1oc(-c2ccccc2I)ns1,T/C,[17],113 % of control
same,T/C,[18],114 % of control
same,T/C,"dose: 400.0 mg/kg/injection, schedule: Q01DX009 (ip), vehicle: Klucel (hydroxypropylcellulose) (HPC)",96 % of control
CC(C)OC(=O)Nc1ccc2nc(-c3cscn3)[nH]c2c1,T/C,[11],110 % of control
same,T/C,[12],114 % of control and 121 % of control
same,T/C,[13],151 % of control
same,T/C,"dose: 400.0 mg/kg/injection, schedule: Q01DX005 (ip), vehicle: saline with Tween-80",180 % of control
CC(C)C1=CC23CCC4C(C)(C(=O)O)CCCC4(C)C2CC1C(C(=O)NCCCN(C)C)C3C(=O)O (stereo unspecified),T/C,"dose: 60.0 mg/kg/injection, schedule: Q01DX005 (ip), vehicle: Klucel (hydroxypropylcellulose) (HPC)",95 % of control
same,T/C,"dose: 120.0 mg/kg/injection, schedule: Q01DX005 (ip), vehicle: Klucel (hydroxypropylcellulose) (HPC)",95 % of control
same,T/C,"dose: 240.0 mg/kg/injection, schedule: Q01DX005 (ip), vehicle: Klucel (hydroxypropylcellulose) (HPC)",93 % of control
Nc1[nH]nc2nc(-c3ccc(Cl)cc3)cnc12,T/C,[22],100 % of control
same,T/C,[23],100 % of control
same,T/C,"dose: 200.0 mg/kg/injection, schedule: Q04DX003 (ip), vehicle: saline with Tween-80",100 % of control
CS(=O)(=O)OCCN(CCOS(C)(=O)=O)c1ccc(/C=N/Nc2ncnc3nc[nH]c23)cc1,T/C,[19],172 % of control
same,T/C,"dose: 66.0 mg/kg/injection, schedule: Q04DX003 (ip), vehicle: saline with Tween-80",177 % of control
same,T/C,[20],181 % of control
same,T/C,[23],177 % of control
same,T/C,"dose: 150.0 mg/kg/injection, schedule: Q04DX003 (ip), vehicle: saline with Tween-80",195 % of control
Fc1c2ccccc2c2ccc3cccc4ccc1c2c43,T/C,"dose: 50.0 mg/kg/injection, schedule: Q04DX002 (ip), vehicle: saline",103 % of control and 104 % of control
same,T/C,[21],117 % of control
same,T/C,[8],100 % of control and 110 % of control
same,T/C,[9],100 % of control and 113 % of control
same,T/C,[10],103 % of control
Cc1cc(C=C2C(=O)NC(=S)NC2=O)cc(C)c1O,T/C,"dose: 12.5 mg/kg/injection, schedule: Q01DX005 (ip), vehicle: saline with Tween-80",101 % of control and 96 % of control and 97 % of control
same,T/C,"dose: 25.0 mg/kg/injection, schedule: Q01DX005 (ip), vehicle: saline with Tween-80",105 % of control and 106 % of control and 118 % of control
CN(C)C(=S)C(O)(c1ccccc1)c1ccccc1,T/C,[16],90 % of control
same,T/C,[17],100 % of control
same,T/C,[18],97 % of control
